According to patent publication US7388017B2, “Inhibitors of serine proteases, particularly hepatitis C virus NS3 protease” (Vertex Pharmaceuticals Incorporated, priority 1996, dated 2008):
Starred links: 1 amine or outer side, 2 acyl side, 3 side chain; linkers in the order of their positions; H or OH if unused. Non-standard residues stand in square brackets, D forms with d. Residues, ends and D or L forms follow the SMILES beside them. ξ: configuration not given here. *: point of attachment. X45 = O=C([C@@H]1C2CC2CN1[*:1])[*:2]; 1Nal = N[CH](Cc1cccc2ccccc12)C(=O)O; 2Nal = N[CH](Cc1ccc2ccccc2c1)C(=O)O; Hydrocinnamoyl = O=C(CCc1ccccc1)*; Pyrazinecarbonyl = O=C(c1cnccn1)*; Hyp = O=C(O)[CH]1C[CH](O)CN1; Abu = CC[CH](N)C(=O)O; CO = O=C([*:1])[*:2]; Bz = O=C(c1ccccc1)*; NHPh = c1ccc(N*)cc1; ξAbu = CCC(N)C(=O)O; Bn = c1ccc(C*)cc1

Molecular target: T1, HCV NS3 protease (Hepatitis C virus genotype 1a, UniProt P27958)
T1 construct: more particularly HCV NS3 proteases
Test: Enzyme inhibition of HCV NS3 serine protease (cleavage of peptide substrate / EDVV AbuC-p-nitroanilide, with or without NS4A)
Assay type: biochemical
Conditions: Enzyme inhibition data; Ki from rate vs [inhibitor] plots, Morrison tight binding competitive inhibition fit; 30 C, pH 7.8; read-out: Ki
How it was run: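 Spectrophotometric assay at 30 °C following pNA release at 405 nm from EDVV AbuC-pNA substrate, with or without NS4A. Ki from rate versus [inhibitor] fitted to Morrison's tight-binding competitive inhibition equation; Kii/Kis from mixed-inhibition fits; values reported in μM.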

T1 sequence (P27958 1027-1208): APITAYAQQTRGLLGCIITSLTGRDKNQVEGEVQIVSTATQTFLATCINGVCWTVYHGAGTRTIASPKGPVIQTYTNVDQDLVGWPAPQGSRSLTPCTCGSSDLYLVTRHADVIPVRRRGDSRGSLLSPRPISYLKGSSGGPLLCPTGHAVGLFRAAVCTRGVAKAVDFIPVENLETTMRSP

Ki [µM] | SMILES
> 100 | CCC(C=O)NC(=O)C1CC(OCc2ccccc2)CN1C(=O)C(NC(=O)Cc1ccccc1[N+](=O)[O-])C(C)C (stereo not drawn) [Compound 161]
> 100 | CCC(C=O)NC(=O)C1CC(OCc2ccccc2)CN1C(=O)C(NC(=O)Cc1ccsc1)C(C)C (stereo not drawn) [Compound 163]
> 100 | CCC(C=O)NC(=O)C1CC(OCc2ccccc2)CN1C(=O)C(NC(=O)C(OC)c1ccccc1)C(C)C (stereo not drawn) [Compound 164]
> 100 | CCC(C=O)NC(=O)C1CC(OCc2ccccc2)CN1C(=O)C(NC(=O)CCCc1ccccc1)C(C)C (stereo not drawn) [Compound 166]
1 to 100 | CCC(C=O)NC(=O)C1CC(OCc2ccccc2)CN1C(=O)C(NC(=O)c1c(O)ccc2ccccc12)C(C)C (stereo not drawn) [Compound 168]
> 100 | CCC(C=O)NC(=O)C1CC(OCc2ccccc2)CN1C(=O)C(NC(=O)COc1ccccc1C=O)C(C)C (stereo not drawn) [Compound 169]
> 100 | CCC(C=O)NC(=O)C1CC(OCc2ccccc2)CN1C(=O)C(NC(=O)CCC(=O)c1ccccc1)C(C)C (stereo not drawn) [Compound 170]
> 100 | CCC(C=O)NC(=O)C1CC(OCc2ccccc2)CN1C(=O)C(NC(=O)CCOc1ccccc1)C(C)C (stereo not drawn) [Compound 171]
> 100 | CCCCC(C(=O)O)C(=O)NC(C(=O)N1CC(OCc2ccccc2)CC1C(=O)NC(C=O)CC)C(C)C (stereo not drawn) [Compound 172]
1 to 100 | CCCC(C(=O)NC(C(=O)N1CC(OCc2ccccc2)CC1C(=O)NC(C=O)CC)C(C)C)c1ccccc1 (stereo not drawn) [Compound 174]
1 to 100 | CCC(C=O)NC(=O)C1CC(OCc2ccccc2)CN1C(=O)C(NC(=O)c1c[nH]c2ccccc12)C(C)C (stereo not drawn) [Compound 175]
> 100 | CCC(C=O)NC(=O)C1CC(OCc2ccccc2)CN1C(=O)C(NC(=O)C1CCCC1c1ccccc1)C(C)C (stereo not drawn) [Compound 177]
> 100 | CCC(C=O)NC(=O)C1CC(OCc2ccccc2)CN1C(=O)C(NC(=O)c1c(-c2ccccc2Cl)noc1C)C(C)C (stereo not drawn) [Compound 182]
1 to 100 | CCC(C=O)NC(=O)C1CC(OCc2ccccc2)CN1C(=O)C(NC(=O)c1c2c(nc3ccccc13)CCCC2)C(C)C (stereo not drawn) [Compound 183]
> 100 | CCC(C=O)NC(=O)C1CC(OCc2ccccc2)CN1C(=O)C(NC(=O)c1c(-c2c(Cl)cccc2Cl)noc1C)C(C)C (stereo not drawn) [Compound 186]
> 100 | CCC(C=O)NC(=O)C1CC(OCc2ccccc2)CN1C(=O)C(NC(=O)c1cc(C)oc1C)C(C)C (stereo not drawn) [Compound 189]
> 100 | CCC(C=O)NC(=O)C1CC(OCc2ccccc2)CN1C(=O)C(NC(=O)c1c(C)cc(C)cc1C)C(C)C (stereo not drawn) [Compound 191]
> 100 | CCC(C=O)NC(=O)C1CC(OCc2ccccc2)CN1C(=O)C(NC(=O)c1cccc(C)c1O)C(C)C (stereo not drawn) [Compound 192]
> 100 | CCC(C=O)NC(=O)C1CC(OCc2ccccc2)CN1C(=O)C(NC(=O)c1c(C)cccc1C)C(C)C (stereo not drawn) [Compound 193]
1 to 100 | CCC(C=O)NC(=O)C1CC(OCc2ccccc2)CN1C(=O)C(NC(=O)c1ccccc1Br)C(C)C (stereo not drawn) [Compound 195]
1 to 100 | CCOc1ccc2ccccc2c1C(=O)NC(C(=O)N1CC(OCc2ccccc2)CC1C(=O)NC(C=O)CC)C(C)C (stereo not drawn) [Compound 197]

Continued, compound first:

SMILES | Ki [µM]
CCC(C=O)NC(=O)C1CC(OCc2ccccc2)CN1C(=O)C(NC(=O)C(Cc1cccc2ccccc12)NC(=O)c1cnccn1)C(C)C (stereo not drawn) [Compound 131] (Pyrazinecarbonyl-[1Nal]V[Hyp](Bn)[Abu]-aldehyde; configuration not given here) | 1 to 100
CCC(C=O)NC(=O)C1CC(OCc2ccccc2)CN1C(=O)C(NC(=O)C(Cc1ccc2ccccc2c1)NC(=O)c1cnccn1)C(C)C (stereo not drawn) [Compound 132] (Pyrazinecarbonyl-[2Nal]V[Hyp](Bn)[Abu]-aldehyde; configuration not given here) | 1 to 100
CCC(C=O)NC(=O)C1CC(OCc2ccccc2)CN1C(=O)C(NC(=O)C(Cc1c[nH]cn1)NC(=O)c1cnccn1)C(C)C (stereo not drawn) [Compound 134] (Pyrazinecarbonyl-HV[Hyp](Bn)[Abu]-aldehyde; configuration not given here) | > 100
CCC(C=O)NC(=O)C1CC(OCc2ccccc2)CN1C(=O)C(NC(=O)C(Cc1ccccc1)NC(=O)c1cnccn1)C(C)C (stereo not drawn) [Compound 141] (Pyrazinecarbonyl-FV[Hyp](Bn)[Abu]-aldehyde; configuration not given here) | 1 to 100
CCC(C=O)NC(=O)C1CC(OCc2ccccc2)CN1C(=O)C(NC(=O)C(NC(=O)c1cnccn1)C(C)OCc1ccccc1)C(C)C (stereo not drawn) [Compound 142] (Pyrazinecarbonyl-T(Bn)V[Hyp](Bn)[Abu]-aldehyde; configuration not given here) | 1 to 100
CCC(C=O)NC(=O)C1CC(OCc2ccccc2)CN1C(=O)C(NS(=O)(=O)Cc1ccccc1)C(C)C (stereo not drawn) [Compound 143] | > 100
CCC(C=O)NC(=O)C1CC(OCc2ccccc2)CN1C(=O)C(NS(=O)(=O)c1ccccc1)C(C)C (stereo not drawn) [Compound 144] | > 100
CCC(C=O)NC(=O)C1CC(OCc2ccccc2)CN1C(=O)C(NC(=O)Nc1ccccc1)C(C)C (stereo not drawn) [Compound 145] ({NHPh-CO}-Val-[Hyp](Bn)-[Abu]-aldehyde; configuration not given here) | 1 to 100
CCC(C=O)NC(=O)C1CC(OCc2ccccc2)CN1C(=O)C(NC(=O)CCc1ccccc1)C(C)C (stereo not drawn) [Compound 147] (Hydrocinnamoyl-Val-[Hyp](Bn)-[Abu]-aldehyde; configuration not given here) | > 100
CCC(C=O)NC(=O)C1CC(OCc2ccccc2)CN1C(=O)C(NC(=O)c1ccccc1)C(C)C (stereo not drawn) [Compound 149] (Bz-Val-[Hyp](Bn)-[Abu]-aldehyde; configuration not given here) | 1 to 100
CCC(C=O)NC(=O)C1CC(OCc2ccccc2)CN1C(=O)C(NC(=O)Cc1ccc(NC(C)=O)cc1)C(C)C (stereo not drawn) [Compound 152] | > 100
CCC(C=O)NC(=O)C1CC(OCc2ccccc2)CN1C(=O)C(NC(=O)c1ccc[nH]1)C(C)C (stereo not drawn) [Compound 153] | 1 to 100
CCC(C=O)NC(=O)C1CC(OCc2ccccc2)CN1C(=O)C(NC(=O)c1cc2ccccc2[nH]1)C(C)C (stereo not drawn) [Compound 154] | 1 to 100
CCC(C=O)NC(=O)C1CC(OCc2ccccc2)CN1C(=O)C(NC(=O)Cc1csc(N)n1)C(C)C (stereo not drawn) [Compound 155] | 1 to 100
CCC(C=O)NC(=O)C1CC(OCc2ccccc2)CN1C(=O)C(NC(=O)c1ccc(O)c(Cl)c1)C(C)C (stereo not drawn) [Compound 156] | 1 to 100
CCC(C=O)NC(=O)C1CC(OCc2ccccc2)CN1C(=O)C(NC(=O)c1nccc2ccccc12)C(C)C (stereo not drawn) [Compound 158] | 1 to 100
CCC(C=O)NC(=O)C1CC(OCc2ccccc2)CN1C(=O)C(NC(=O)c1cccc2ccccc12)C(C)C (stereo not drawn) [Compound 159] | 1 to 100
CCC(C=O)NC(=O)[C@@H]1C2CC2CN1C(=O)[C@@H](NC(=O)[C@@H](NC(=O)[C@H](CC(=O)O)NC(=O)[C@H](CCC(=O)O)NC(C)=O)C(C)C)C(C)C (stereo partly drawn) [Compound 198] (Ac-EDVV[X45][ξAbu]-aldehyde) | < 1
